Where two headings read alike, the source gives them in different places. Values belong to the compound of their own block, whether it stands above or below them.
Legend:
[1] = system: HER-2 receptor (Hsp90 client) in MCF-7 cells; test: HER-2 degradation assay (MCF-7 cells, 16 h, phycoerythrin-labeled antibody and flow cytometry); format: cell-based, human
[2] = system: MCF-7 breast cancer cells; test: MTS cell growth inhibition assay; format: cell-based, human; settings: MCF-7 cells
in vivo = settings: Balb/C, mouse, plasma
[3] = Pharmacokinetics in Balb/C mice (IV 10 mg/kg, PO 100 mg/kg); settings: for IV Parameters T1/2 / IV Parameters VSS / IV Parameters Cl: IV 10 mg/kg; for IV Parameters T1/2 / IV Parameters VSS / PO Parameters T1/2 / PO Parameters Cmax / PO Parameters Tmax / PO Parameters AUC: H3PO4 salts; for PO Parameters T1/2 / PO Parameters Cmax / PO Parameters Tmax / PO Parameters AUC: PO 100 mg/kg; for PO Parameters Cmax: plasma; for IV Parameters Cl: H3PO4 salts in phosphatidylcholine/water dispersion; for PO Parameters AUC: over 4 h; for PO Parameters % F: oral bioavailability, PO 100 mg/kg vs IV 10 mg/kg
[4] = system: Purified native Hsp90 protein (mixture of alpha and beta) from HeLa cells; test: Fluorescence-based competitive binding assay for biotinylated-geldanamycin to purified Hsp90; design: species or system human; settings: HSP90 binding ability; competition with biotin-GM
Her-2 in MCF-7 cells = test: HER2 inhibition assay (Her-2 degradation, MCF-7 cells, 24 incubation, flow cytometry); format: cell-based; settings: Homo sapiens, MCF7, concentration necessary to degrade 50% of Her 2 expression
Experimental: MCF-7 cells are seeded in 24 well plates at a density of approximately 30,000 cells/well and allowed to grow for 16 hours in DMEM supplemented with 10% FBS. Drug is then added at a concentration range of 100 uM to 0.01 uM. Cells are incubated for an additional […]. Drug treated cells and untreated control cells are trypsinized, and incubated at room temperature for 15 minutes with anti Her-2 neu Ab conjugated with phycoerythrin (Becton Dickinson, San Jose Calif.; Cat no. 340552) at a concentration of 0.25 ug/ml, or non-specific control IgG1 conjugated with phycoerythrin (Becton Dickinson, San Jose Calif.; Cat no. 340761). Samples were analyzed using a FACS Calibur flow cytometer (Becton Dickinson) equipped with Argon-ion laser that which emits 15 mW of 488 nm light for excitation of the phycoerythrin fluorochrome. 10,000 events were collected per sample. A fluorescence histogram was generated and the mean fluorescence intensity (mfi) of each sample was determined using Cellquest software. The background was defined as the mfi generated from cells incubated with control IgG, and was subtracted from each sample stained with the HER-2/neu Ab Percent degradation of Her-2 was calculated as follows: % Her-2 degradation=(mfi HER-2 sample)/(mfi HER-2 untreated cells)×100
The compounds in the table below were prepared as described above and evaluated for Her-2 degradation ability based on the above assay (example 314).

[5] = system: N87 xenograft model of human stomach cancer; settings: for tumor growth inhibition: N87
[6] = Solubility in simulated gastric fluid, simulated intestinal fluid and serum; format: physicochemical; settings: for Serum (PH 7.4): solubility in serum; for Gastric (PH 2.0): solubility in simulated gastric fluid; for Intestinal (PH 6.5): solubility in simulated intestinal fluid
[7] = Mouse pharmacokinetics after oral administration at 100 mg/kg
[8] = Homo sapiens, MCF7, MCF-7 cells, 16 h, SEM 6-11% of the mean, read-out: HER-2 IC50
[9] = Homo sapiens, MCF7, 120 h, 5 days, SEM 9-21% of the mean
[10] = Homo sapiens, MCF7, MCF-7 cells, 16 h, average of at least three observations, read-out: HER-2 IC50

IC50 [1, 8]: 210 nM
IC50 [2, 9]: 200 nM
clearance (in vivo; iv, 10 mg/kg): 33 mL/min/kg
AUC (in vivo; po, 100 mg/kg): 6330 ng·h/mL
Tmax (in vivo; po, 100 mg/kg): 30 min
bioavailability (in vivo; po, 100 mg/kg): 28%
IV Parameters T1/2 [3]: 78 min
IV Parameters VSS [3]: 3.4 L/kg
PO Parameters T1/2 [3]: 42 min
PO Parameters Cmax [3]: 4800 ng/mL
SMILES: CCC(C)NCCCn1c(Sc2cc(OC)ccc2I)nc2c(N)ncnc21 (racemic) [Compound 109, 9-(3-sec-Butylamino-propyl)-8-(2-iodo-5-methoxy-phenylsulfanyl)-9H-purin-6-ylamine (racemate)]

IC50 [4]: 10000 nM
IC50 (Her-2 in MCF-7 cells): 6000 nM
IC50 [1, 10]: 12000 nM
SMILES: CCCCn1c(Cc2cc(OC)ccc2OC)nc2c(N)ncnc21 [Compound 1, 8-(2,5-dimethoxybenzyl)-N-9-butyladenine]

IC50 [4]: 2800 nM
IC50 (Her-2 in MCF-7 cells): 1500 nM
SMILES: COc1ccc(OC)c(Cc2nc3c(N)ncnc3n2CCC=C(C)C)c1 [Compound 10, 8-(2,5-Dimethoxy-benzyl)-9-(4-methyl-pent-3-enyl)-9H-purin-6-ylamine]

SMILES: C=CCNC1=C2C[C@@H](C)C[C@H](OC)[C@H](O)[C@@H](C)/C=C(\C)[C@H](OC(N)=O)[C@@H](OC)/C=C\C=C(/C)C(=O)NC(=CC1=O)C2=O [Compound 17-AAG, 17-allylamino,17-desmethoxy-geldanamycin, reference compound]
IC50 ([1]; read-out: HER-2 IC50): 12.9 ± 0.3 nM
IC50 ([2]; 5 days): 32 ± 4 nM

IC50 [4]: 1100 nM
IC50 (Her-2 in MCF-7 cells): 1500 nM
SMILES: C#CCCCn1c(Cc2cc(OC)ccc2I)nc2c(N)ncnc21 [Compound 26, 8-(2-Iodo-5-methoxy-benzyl)-9-pent-4-ynyl-9H-purin-6-ylamine]

IC50 [4]: 900 nM
IC50 (Her-2 in MCF-7 cells): 800 nM
SMILES: COc1ccc(I)c(Cc2nc3c(N)ncnc3n2CCC=C(C)C)c1 [Compound 27, 8-(2-Iodo-5-methoxy-benzyl)-9-(4-methyl-pent-3-enyl)-9H-purin-6-yl amine]

IC50 [4]: 2300 nM
IC50 (Her-2 in MCF-7 cells): 1000 nM
SMILES: COc1ccc(I)c(Cc2nc3c(N)nc(F)nc3n2CCC=C(C)C)c1 [Compound 28, 2-Fluoro-8-(2-iodo-5-methoxy-benzyl)-9-(4-methyl-pent-3-enyl)-9H-purin-6-ylamine]

IC50 [4]: 900 nM
IC50 (Her-2 in MCF-7 cells): 800 nM
SMILES: C#CCCCn1c(Cc2cc(OC)ccc2I)nc2c(N)nc(F)nc21 [Compound 29, 2-Fluoro-8-(2-iodo-5-methoxy-benzyl)-9-pent-4-ynyl-9H-purin-6-ylamine]

IC50 [4]: 1500 nM
IC50 (Her-2 in MCF-7 cells): 1500 nM
SMILES: CCCCn1c(Sc2cc(OC)ccc2I)nc2c(N)ncnc21 [Compound 44, 9-Butyl-8-(2-iodo-5-methoxy-phenylsulfanyl)-9H-purin-6-ylamine]

IC50 [4]: 1800 nM
IC50 (Her-2 in MCF-7 cells): 2000 nM
SMILES: CCCCn1c(Sc2ccc(I)c(OC)c2)nc2c(N)ncnc21 [Compound 45, 9-Butyl-8-(4-iodo-3-methoxy-phenylsulfanyl)-9H-purin-6-ylamine]

IC50 [4]: 900 nM
IC50 (Her-2 in MCF-7 cells): 300 nM
IC50 [1, 10]: 370 nM
SMILES: COc1ccc(I)c(Sc2nc3c(N)ncnc3n2CCC=C(C)C)c1 [Compound 46, 8-(2-Iodo-5-methoxy-phenylsulfanyl)-9-(4-methyl-pent-3-enyl)-9H-purin-6-ylamine]

SMILES: C#CCCCn1c(Sc2cc(OC)ccc2I)nc2c(N)ncnc21 [Compound 47, 8-(2-Iodo-5-methoxy-phenylsulfanyl)-9-pent-4-ynyl-9H-purin-6-ylamine]
IC50 [4]: 800 nM
IC50 (Her-2 in MCF-7 cells): 300 nM

SMILES: C#CCCCn1c(Sc2cc(OC)ccc2OC)nc2c(N)ncnc21 [Compound 57, 8-(2,5-dimethoxy-phenylsulfanyl)-9-pent-4-ynyl-9H-purin-6-ylamine]
IC50 [4]: 4000 nM
IC50 (Her-2 in MCF-7 cells): 1400 nM

IC50 [4]: 1300 nM
IC50 (Her-2 in MCF-7 cells): 700 nM
SMILES: COc1ccc(OC)c(Sc2nc3c(N)ncnc3n2CCC=C(C)C)c1 [Compound 63, 8-(2,5-dimethoxy-phenylsulfanyl)-9-(4-methyl-pent-3-enyl)-9H-purin-6-ylamine]

IC50 [1, 8]: 140 nM
IC50 [2, 9]: 200 nM
bioavailability (in vivo; oral, 100 mg/kg): ≥ 50%
IV Parameters T1/2 [3]: 96 min
IV Parameters VSS [3]: 24 L/kg
IV Parameters Cl [3]: 131 mL/min/kg
PO Parameters T1/2 [3]: 54 min
PO Parameters Tmax [3]: 30 min
PO Parameters Cmax [3]: 6700 ng/mL
PO Parameters AUC [3]: 680 µg·min/mL
PO Parameters % F [3]: 97%
SMILES: COc1ccc(I)c(Sc2nc3c(N)ncnc3n2CCCNC(C)(C)C)c1 [Compound 95, 9-(3-tert-Butylamino-propyl)-8-(2-iodo-5-methoxy-phenylsulfanyl)-9H-purin-6-ylamine]

IC50 [1, 8]: 210 nM
IC50 ([1]; Homo sapiens, MCF7, MCF-7 cells, read-out: HER-2 IC50): 210 nM
IC50 [2, 9]: 200 nM
IC50 ([2]; Homo sapiens, MCF7): 200 nM
Cmax (in vivo; po, 100 mg/kg): 12 µM
IV Parameters T1/2 [3]: 30 min
IV Parameters VSS [3]: 2.4 L/kg
IV Parameters Cl [3]: 69 mL/min/kg
PO Parameters T1/2 [3]: 36 min
PO Parameters Tmax [3]: 30 min
PO Parameters Cmax [3]: 5800 ng/mL
PO Parameters AUC [3]: 590 µg·min/mL
PO Parameters % F [3]: 42%
SMILES: CCC(CC)NCCCn1c(Sc2cc(OC)ccc2I)nc2c(N)ncnc21 [Compound 108, 9-[3-(1-Ethyl-propylamino)-propyl]-8-(2-iodo-5-methoxy-phenylsulfanyl)-9H-purin-6-ylamine]

SMILES: COc1ccc(I)c(Sc2nc3c(N)ncnc3n2CCNCC(C)(C)C)c1.O=P(O)(O)O [Compound 132.H3PO4, 9-[2-(2,2-Dimethyl-propylamino)-ethyl]-8-(2-iodo-5-methoxy-phenylsulfanyl)-9H-purin-6-ylamine, H3PO4 salt]
tumor growth inhibition ([5]; oral 2×100 mg/kg/day, 5 days/week): statistically significant (p=0.02) tumor growth inhibition
toxicity ([5]; oral 2×100 mg/kg/day, 5 days/week, mice): no overt toxicity

SMILES: CCOP(=O)(CCn1c(Sc2nc3cncc(Cl)c3s2)nc2c(N)ncnc21)OCC [Compound 206, {2-[6-Amino-8-(7-chloro-thiazolo[4,5-c]pyridinl-2-ylsulfanyl)-purin-9-yl]-ethyl}-phosphonic acid diethyl ester]
solubility compared with benzothioazol analog 204 ([6]; simulated gastric fluid, simulated intestinal fluid, serum): significantly more soluble in all three solutions
Serum (PH 7.4) [6]: 14 µg/mL
Gastric (PH 2.0) [6]: 124 µg/mL
Intestinal (PH 6.5) [6]: 38.3 µg/mL
plasma concentrations (in words) ([7]; PO 100 mg/kg): below the level of detection
Cmax ([7]; in vivo, po, 100 mg/kg): < 500 ng/mL

SMILES: Nc1ncnc2c1nc(Sc1nc3cccc(Cl)c3s1)n2CCNC1CC1 [Compound 264]
IC50 ([1]; 9-N-alkyl position SAR, head prints no unit, nM, read-out: HER-2): 110 nM
Serum (PH 7.4) [6]: 59 µg/mL
Gastric (PH 2.0) [6]: 245 µg/mL
Intestinal (PH 6.5) [6]: 21 µg/mL
tumor growth inhibition ([5]; oral 200 mg/kg 5 days/week, day 39, vs control group): 56%
oral bioavailability (in words) [7]: orally bioavailable
C-max ([7]; PO 100 mg/kg): 4513 ng/mL
Mouse PK PO AUC at 100 mg/kg PO ([7]; PO 100 mg/kg): 430511 ng·min/mL
Mouse PK PO Cmax at 100 mg/kg ([7]; PO 100 mg/kg): 4479 ng/mL
time of C-max after dosing ([7]; PO 100 mg/kg): 30 min
half life ([7]; PO 100 mg/kg, estimated): ~90 min

SMILES: C#CCCCn1c(Sc2cc(OC)ccc2I)nc2c(N)ncnc21 [Compound 309, 8-(2-iodo-5-methoxy-phenylsulfanyl)-9-pent-4-ynyl-9H-purin-6-ylamine]
IC50 [2, 9]: 700 nM
